Test results as given in PubChem BioAssay (NCI).
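48-hour exposure; five concentrations; linearly interpolated endpoints. TGI is the concentration that stops growth completely.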

How the values were obtained:
Assay in all cases: NCI-60 cell line screen, 48 h
NCI-H23 lung = test system: NCI-H23 lung
KM12 colon = test system: KM12 colon
RPMI-8226 leukemia = test system: RPMI-8226 leukemia
786-0 renal = test system: 786-0 renal
MCF7 breast = test system: MCF7 breast
SK-MEL-28 melanoma = test system: SK-MEL-28 melanoma
SN12C renal = test system: SN12C renal
OVCAR-5 ovarian = test system: OVCAR-5 ovarian
PC-3 prostate = test system: PC-3 prostate
OVCAR-4 ovarian = test system: OVCAR-4 ovarian
CCRF-CEM leukemia = test system: CCRF-CEM leukemia
HOP-92 NSCLC = test system: HOP-92 NSCLC
A549 NSCLC = test system: A549 NSCLC
SF-539 CNS = test system: SF-539 CNS
TK-10 renal = test system: TK-10 renal
MOLT-4 leukemia = test system: MOLT-4 leukemia
HCT-15 colon = test system: HCT-15 colon
HS 578T breast = test system: HS 578T breast
T-47D breast = test system: T-47D breast
HCC-2998 colon = test system: HCC-2998 colon
CAKI-1 renal = test system: CAKI-1 renal
NCI-H522 lung = test system: NCI-H522 lung
BT-549 breast = test system: BT-549 breast
UACC-257 melanoma = test system: UACC-257 melanoma
SF-268 CNS = test system: SF-268 CNS
OVCAR-3 ovarian = test system: OVCAR-3 ovarian
NCI/ADR-RES ovarian = test system: NCI/ADR-RES ovarian
UACC-62 melanoma = test system: UACC-62 melanoma
UO-31 renal = test system: UO-31 renal
HCT-116 colon = test system: HCT-116 colon
U251 CNS = test system: U251 CNS
A498 renal = test system: A498 renal
HL-60(TB) leukemia = test system: HL-60(TB) leukemia
M14 melanoma = test system: M14 melanoma
LOX IMVI melanoma = test system: LOX IMVI melanoma
ACHN renal = test system: ACHN renal
IGROV1 ovarian = test system: IGROV1 ovarian
K-562 leukemia = test system: K-562 leukemia
SW-620 colon = test system: SW-620 colon
NCI-H460 lung = test system: NCI-H460 lung
SF-295 CNS = test system: SF-295 CNS
COLO 205 colon = test system: COLO 205 colon
NCI-H226 lung = test system: NCI-H226 lung
HT29 colon = test system: HT29 colon
HOP-62 NSCLC = test system: HOP-62 NSCLC
OVCAR-8 ovarian = test system: OVCAR-8 ovarian
SK-MEL-5 melanoma = test system: SK-MEL-5 melanoma
SNB-19 CNS = test system: SNB-19 CNS
DU-145 prostate = test system: DU-145 prostate
MDA-MB-435 = test system: MDA-MB-435
EKVX NSCLC = test system: EKVX NSCLC
SNB-75 CNS = test system: SNB-75 CNS
MDA-N = test system: MDA-N
RXF 393 renal = test system: RXF 393 renal
MALME-3M melanoma = test system: MALME-3M melanoma

Structure (SMILES): COc1ccc(N=NC(=O)NC(CC(C)C)C(=O)NC(CC(C)C)C(=O)O)cc1 (stereo not given)
- TGI (NCI-H23 lung): > 100 µM
- TGI (KM12 colon): > 100 µM
- TGI (RPMI-8226 leukemia): > 100 µM
- TGI (786-0 renal): > 100 µM
- TGI (MCF7 breast): > 100 µM
- TGI (SK-MEL-28 melanoma): > 100 µM
- TGI (SN12C renal): > 100 µM
- TGI (OVCAR-5 ovarian): > 100 µM
- TGI (PC-3 prostate): > 100 µM
- TGI (OVCAR-4 ovarian): > 100 µM
- TGI (CCRF-CEM leukemia): > 100 µM
- TGI (HOP-92 NSCLC): > 100 µM
- TGI (A549 NSCLC): > 100 µM
- TGI (SF-539 CNS): 57.6 µM
- TGI (TK-10 renal): > 100 µM
- TGI (MOLT-4 leukemia): > 100 µM
- TGI (HCT-15 colon): > 100 µM
- TGI (HS 578T breast): > 100 µM
- TGI (T-47D breast): > 100 µM
- TGI (HCC-2998 colon): > 100 µM
- TGI (CAKI-1 renal): > 100 µM
- TGI (NCI-H522 lung): > 100 µM
- TGI (BT-549 breast): > 100 µM
- TGI (UACC-257 melanoma): > 100 µM
- TGI (SF-268 CNS): > 100 µM
- TGI (OVCAR-3 ovarian): > 100 µM
- TGI (NCI/ADR-RES ovarian): > 100 µM
- TGI (UACC-62 melanoma): > 100 µM
- TGI (UO-31 renal): > 100 µM
- TGI (HCT-116 colon): > 100 µM
- TGI (U251 CNS): > 100 µM
- TGI (A498 renal): > 100 µM
- TGI (HL-60(TB) leukemia): > 100 µM
- TGI (M14 melanoma): > 100 µM
- TGI (LOX IMVI melanoma): > 100 µM
- TGI (ACHN renal): 80.2 µM
- TGI (IGROV1 ovarian): > 100 µM
- TGI (K-562 leukemia): 80.3 µM
- TGI (SW-620 colon): > 100 µM
- TGI (NCI-H460 lung): > 100 µM
- TGI (SF-295 CNS): > 100 µM
- TGI (COLO 205 colon): 49.5 µM
- TGI (NCI-H226 lung): > 100 µM
- TGI (HT29 colon): > 100 µM
- TGI (HOP-62 NSCLC): > 100 µM
- TGI (OVCAR-8 ovarian): > 100 µM
- TGI (SK-MEL-5 melanoma): > 100 µM
- TGI (SNB-19 CNS): > 100 µM
- TGI (DU-145 prostate): > 100 µM
- TGI (MDA-MB-435): > 100 µM
- TGI (EKVX NSCLC): > 100 µM
- TGI (SNB-75 CNS): > 100 µM
- TGI (MDA-N): > 100 µM
- TGI (RXF 393 renal): > 100 µM
- TGI (MALME-3M melanoma): > 100 µM
